According to PubChem BioAssay (NCI):
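Method: 48-hour compound exposure of cells in 96-well plates, five concentrations, linear interpolation of endpoints. GI50 is the concentration that inhibits growth by half. TGI: concentration producing complete growth inhibition.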

How the values were obtained:
Test in all cases: NCI-60 cell line screen, 48 h
[1] = test system: PC-3 prostate
[2] = test system: T-47D breast
[3] = test system: IGROV1 ovarian
[4] = test system: HL-60(TB) leukemia
[5] = test system: HS 578T breast
[6] = test system: UO-31 renal
[7] = test system: K-562 leukemia
[8] = test system: SF-268 CNS
[9] = test system: RXF 393 renal
[10] = test system: EKVX NSCLC
[11] = test system: BT-549 breast
[12] = test system: U251 CNS
[13] = test system: M14 melanoma
[14] = test system: SNB-75 CNS
[15] = test system: NCI-H226 lung
[16] = test system: SK-MEL-2 melanoma
[17] = test system: A549 NSCLC
[18] = test system: A498 renal
[19] = test system: MALME-3M melanoma
[20] = test system: SNB-19 CNS
[21] = test system: 786-0 renal
[22] = test system: OVCAR-3 ovarian
[23] = test system: ACHN renal
[24] = test system: HOP-92 NSCLC
[25] = test system: MDA-MB-435
[26] = test system: SN12C renal
[27] = test system: CCRF-CEM leukemia
[28] = test system: KM12 colon
[29] = test system: HOP-62 NSCLC
[30] = test system: SK-MEL-5 melanoma
[31] = test system: SK-MEL-28 melanoma
[32] = test system: HT29 colon
[33] = test system: LOX IMVI melanoma
[34] = test system: NCI/ADR-RES ovarian
[35] = test system: OVCAR-8 ovarian
[36] = test system: HCT-116 colon
[37] = test system: OVCAR-4 ovarian
[38] = test system: COLO 205 colon
[39] = test system: NCI-H460 lung
[40] = test system: MCF7 breast
[41] = test system: OVCAR-5 ovarian
[42] = test system: HCC-2998 colon
[43] = test system: DU-145 prostate
[44] = test system: NCI-H522 lung
[45] = test system: HCT-15 colon
[46] = test system: TK-10 renal
[47] = test system: SW-620 colon
[48] = test system: SR leukemia
[49] = test system: CAKI-1 renal
[50] = test system: MOLT-4 leukemia
[51] = test system: MDA-MB-231 breast
[52] = test system: SF-539 CNS
[53] = test system: NCI-H23 lung
[54] = test system: UACC-62 melanoma
[55] = test system: RPMI-8226 leukemia
[56] = test system: SK-OV-3 ovarian
[57] = test system: SF-295 CNS

Molecule `C[C@@H]1C[N+]2([O-])[C@H]3C4=CCC[C@@H]4CC[C@H]3[C@@]3(C)OC(=O)CC[C@]34CC[C@H]1[C@@H]42` (some centres undefined) has a GI50 [1] greater than 60 µM, a TGI [1] greater than 60 µM and a GI50 [2] greater than 60 µM. It also gave a TGI [2] greater than 60 µM, a GI50 [3] greater than 60 µM and a TGI [3] greater than 60 µM. For the same molecule, the GI50 [4] was greater than 60 µM, the TGI [4] was greater than 60 µM and the GI50 [5] was greater than 60 µM. The TGI [5] was greater than 60 µM, the GI50 [6] was greater than 60 µM and the TGI [6] was greater than 60 µM. For the same molecule, the GI50 [7] was greater than 60 µM, the TGI [7] was greater than 60 µM and the GI50 [8] was greater than 60 µM. For the same molecule, the TGI [8] was greater than 60 µM, the GI50 [9] was greater than 60 µM and the TGI [9] was greater than 60 µM. For the same molecule, the GI50 [10] was greater than 60 µM, the TGI [10] was greater than 60 µM and the GI50 [11] was greater than 60 µM. The TGI [11] was greater than 60 µM, the GI50 [12] was greater than 60 µM and the TGI [12] was greater than 60 µM. It also gave a GI50 [13] greater than 60 µM, a TGI [13] greater than 60 µM and a GI50 [14] greater than 60 µM. It also gave a TGI [14] greater than 60 µM, a GI50 [15] greater than 60 µM and a TGI [15] greater than 60 µM. For the same molecule, the GI50 [16] was greater than 60 µM, the TGI [16] was greater than 60 µM and the GI50 [17] was greater than 60 µM. The TGI [17] was greater than 60 µM, the GI50 [18] was greater than 60 µM and the TGI [18] was greater than 60 µM. For the same molecule, the GI50 [19] was greater than 60 µM, the TGI [19] was greater than 60 µM and the GI50 [20] was greater than 60 µM. It also gave a TGI [20] greater than 60 µM, a GI50 [21] greater than 60 µM and a TGI [21] greater than 60 µM. It also gave a GI50 [22] greater than 60 µM, a TGI [22] greater than 60 µM and a GI50 [23] greater than 60 µM. It also gave a TGI [23] greater than 60 µM, a GI50 [24] greater than 60 µM and a TGI [24] greater than 60 µM. For the same molecule, the GI50 [25] was greater than 60 µM, the TGI [25] was greater than 60 µM and the GI50 [26] was greater than 60 µM. For the same molecule, the TGI [26] was greater than 60 µM, the GI50 [27] was greater than 60 µM and the TGI [27] was greater than 60 µM. For the same molecule, the GI50 [28] was greater than 60 µM, the TGI [28] was greater than 60 µM and the GI50 [29] was greater than 60 µM. The TGI [29] was greater than 60 µM, the GI50 [30] was greater than 60 µM and the TGI [30] was greater than 60 µM. The GI50 [31] was greater than 60 µM, the TGI [31] was greater than 60 µM and the GI50 [32] was greater than 60 µM. The TGI [32] was greater than 60 µM, the GI50 [33] was greater than 60 µM and the TGI [33] was greater than 60 µM. It also gave a GI50 [34] greater than 60 µM, a TGI [34] greater than 60 µM and a GI50 [35] greater than 60 µM. It also gave a TGI [35] greater than 60 µM, a GI50 [36] greater than 60 µM and a TGI [36] greater than 60 µM. It also gave a GI50 [37] greater than 60 µM, a TGI [37] greater than 60 µM and a GI50 [38] greater than 60 µM. For the same molecule, the TGI [38] was greater than 60 µM, the GI50 [39] was greater than 60 µM and the TGI [39] was greater than 60 µM. The GI50 [40] was greater than 60 µM, the TGI [40] was greater than 60 µM and the GI50 [41] was greater than 60 µM. For the same molecule, the TGI [41] was greater than 60 µM, the GI50 [42] was greater than 60 µM and the TGI [42] was greater than 60 µM. For the same molecule, the GI50 [43] was greater than 60 µM, the TGI [43] was greater than 60 µM and the GI50 [44] was greater than 60 µM. It also gave a TGI [44] greater than 60 µM, a GI50 [45] greater than 60 µM and a TGI [45] greater than 60 µM. The GI50 [46] was greater than 60 µM, the TGI [46] was greater than 60 µM and the GI50 [47] was greater than 60 µM. For the same molecule, the TGI [47] was greater than 60 µM, the GI50 [48] was greater than 60 µM and the TGI [48] was greater than 60 µM. It also gave a GI50 [49] greater than 60 µM, a TGI [49] greater than 60 µM and a GI50 [50] greater than 60 µM. It also gave a TGI [50] greater than 60 µM, a GI50 [51] greater than 60 µM and a TGI [51] greater than 60 µM. It also gave a GI50 [52] greater than 60 µM, a TGI [52] greater than 60 µM and a GI50 [53] greater than 60 µM. It also gave a TGI [53] greater than 60 µM, a GI50 [54] greater than 60 µM and a TGI [54] greater than 60 µM. The GI50 [55] was greater than 60 µM, the TGI [55] was greater than 60 µM and the GI50 [56] was greater than 60 µM. The TGI [56] was greater than 60 µM, the GI50 [57] was greater than 60 µM and the TGI [57] was greater than 60 µM.
